From PMC9075979 (Molecular Therapy, 2022)

Target: Omicron variant RBD or S1 domains-hACE2 binding (Homo sapiens, UniProt Q9BYF1)
Sequence (Q9BYF1 18-740, stated change not applied): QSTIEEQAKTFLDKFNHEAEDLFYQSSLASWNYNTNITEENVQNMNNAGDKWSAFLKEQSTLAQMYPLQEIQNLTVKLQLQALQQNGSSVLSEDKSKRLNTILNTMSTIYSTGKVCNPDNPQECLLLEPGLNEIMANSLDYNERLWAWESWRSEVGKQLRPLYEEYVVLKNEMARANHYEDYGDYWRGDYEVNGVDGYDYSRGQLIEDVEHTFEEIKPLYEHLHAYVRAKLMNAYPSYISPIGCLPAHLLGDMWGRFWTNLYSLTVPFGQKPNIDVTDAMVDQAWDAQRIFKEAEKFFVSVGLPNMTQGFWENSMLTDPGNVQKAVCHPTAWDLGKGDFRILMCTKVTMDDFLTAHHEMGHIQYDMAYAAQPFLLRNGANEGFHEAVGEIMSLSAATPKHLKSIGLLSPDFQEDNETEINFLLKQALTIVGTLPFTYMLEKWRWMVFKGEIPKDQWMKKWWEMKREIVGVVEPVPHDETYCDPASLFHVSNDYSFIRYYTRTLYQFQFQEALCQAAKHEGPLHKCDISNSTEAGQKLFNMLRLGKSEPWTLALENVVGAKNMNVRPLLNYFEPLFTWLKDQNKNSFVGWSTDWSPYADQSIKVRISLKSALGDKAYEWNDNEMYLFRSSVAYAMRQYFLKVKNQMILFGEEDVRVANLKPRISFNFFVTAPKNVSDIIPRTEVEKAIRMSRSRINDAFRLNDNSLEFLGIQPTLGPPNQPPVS

## c1ccc(-c2ccc(C(c3ccccc3)n3ccnc3)cc2)cc1 (stereo not shown) [bifonazole]
  binding of Omicron variant RBD or S1 bioreporters to hACE2: significantly reduced binding
